Results from PubChem BioAssay AID330 (DTP/NCI, 2004).
Values joined by “and” are separate entries in the source; they are usually repeats but may differ in a detail not shown here. Equal entries are not always repeated. Toxic doses and inconclusive results are not listed.

System: P388 leukemia ip, CD2F1 mice, survival T/C
Assay: NCI In Vivo Anticancer Drug Screen. Data for tumor model P388 Leukemia (intraperitoneal) in CD2F1 (CDF1) mice
Conditions: endpoint: median survival time, higher = longer survival
Procedure, shortened: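 Mice carrying the transplanted tumor received test compound or vehicle. Survival was recorded in each group, and the value is the treated-group measurement divided by that of the vehicle-treated control group.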

[1] = dose: 12.5 mg/kg/injection, schedule: Q01DX005 (ip), vehicle: Klucel (hydroxypropylcellulose) (HPC)
[2] = dose: 25.0 mg/kg/injection, schedule: Q01DX005 (ip), vehicle: Klucel (hydroxypropylcellulose) (HPC)
[3] = dose: 12.5 mg/kg/injection, schedule: Q01DX009 (ip), vehicle: saline with Tween-80

For `COc1cccc2c1C(=O)c1c(O)c3c(c(O)c1C2=O)C[C@@](O)(/C(C)=N/NC(=O)c1ccc(N(C)C)cc1)C[C@@H]3OC1CC(N)C(O)C(C)O1` (some centres undefined), the T/C (dose: 0.12 mg/kg/injection, schedule: Q01DX009 (ip), vehicle: water) was 94 % of control, the T/C (dose: 0.25 mg/kg/injection, schedule: Q01DX009 (ip), vehicle: water) was 111 % of control and the T/C (dose: 0.5 mg/kg/injection, schedule: Q01DX009 (ip), vehicle: water) was 150 % of control and 154 % of control. For the same compound, the T/C (dose: 1.0 mg/kg/injection, schedule: Q01DX009 (ip), vehicle: water) was 154 % of control and 164 % of control, the T/C (dose: 2.0 mg/kg/injection, schedule: Q01DX009 (ip), vehicle: water) was 164 % of control and 181 % of control and the T/C (dose: 4.0 mg/kg/injection, schedule: Q01DX009 (ip), vehicle: water) was 157 % of control and 172 % of control. The T/C (dose: 8.0 mg/kg/injection, schedule: Q01DX009 (ip), vehicle: water) was 86 % of control, the T/C (dose: 10.0 mg/kg/injection, schedule: Q01DX001 (ip), vehicle: water) was 159 % of control and the T/C (dose: 16.0 mg/kg/injection, schedule: Q01DX009 (ip), vehicle: water) was 89 % of control. For the same compound, the T/C (dose: 20.0 mg/kg/injection, schedule: Q01DX001 (ip), vehicle: water) was 166 % of control and the T/C (dose: 40.0 mg/kg/injection, schedule: Q01DX001 (ip), vehicle: water) was 115 % of control.

`CCOC(=O)/C=C(\C)Nc1ccccc1N` was tested, and the T/C (dose: 100.0 mg/kg/injection, schedule: Q01DX001 (ip), vehicle: saline with Tween-80) was 97 % of control and the T/C (dose: 200.0 mg/kg/injection, schedule: Q01DX001 (ip), vehicle: saline with Tween-80) was 93 % of control.

`COc1ccc(S(=O)(=O)N/N=C/c2cc(I)cc([N+](=O)[O-])c2O)cc1` was tested, and the T/C (dose: 50.0 mg/kg/injection, schedule: Q01DX005 (ip), vehicle: saline with Tween-80) was 102 % of control, the T/C (dose: 100.0 mg/kg/injection, schedule: Q01DX005 (ip), vehicle: saline with Tween-80) was 100 % of control and the T/C (dose: 200.0 mg/kg/injection, schedule: Q01DX005 (ip), vehicle: saline with Tween-80) was 104 % of control.

With `Cc1nc(Cl)c(C)c(C(=O)O)n1` the T/C (dose: 6.25 mg/kg/injection, schedule: Q01DX009 (ip), vehicle: other) was 117 % of control, the T/C (dose: 12.5 mg/kg/injection, schedule: Q01DX009 (ip), vehicle: other) was 114 % of control and the T/C (dose: 25.0 mg/kg/injection, schedule: Q01DX009 (ip), vehicle: other) was 107 % of control. For the same compound, the T/C (dose: 50.0 mg/kg/injection, schedule: Q01DX009 (ip), vehicle: other) was 99 % of control and the T/C (dose: 100.0 mg/kg/injection, schedule: Q01DX009 (ip), vehicle: other) was 98 % of control.

With `Cc1[nH]nc2c(NC[c-]3[c-][c-][c-][c-]3)ncnc12.[Fe].[c-]1[c-][c-][cH-][c-]1` the T/C (dose: 6.25 mg/kg/injection, schedule: Q01DX005 (ip), vehicle: Klucel (hydroxypropylcellulose) (HPC)) was 101 % of control, the T/C [1] was 100 % of control and the T/C [2] was 115 % of control and 86 % of control.

For `Oc1c2ccccc2cc2cnc3ccccc3c12`, the T/C (dose: 60.0 mg/kg/injection, schedule: Q01DX005 (ip), vehicle: Klucel (hydroxypropylcellulose) (HPC)) was 102 % of control, the T/C (dose: 120.0 mg/kg/injection, schedule: Q01DX005 (ip), vehicle: Klucel (hydroxypropylcellulose) (HPC)) was 109 % of control and the T/C (dose: 240.0 mg/kg/injection, schedule: Q01DX005 (ip), vehicle: Klucel (hydroxypropylcellulose) (HPC)) was 111 % of control.

In the case of `O=C1C(Cl)=CC(=NS(=O)(=O)c2ccccc2)C=C1Cl`, the T/C (dose: 3.13 mg/kg/injection, schedule: Q01DX009 (ip), vehicle: saline with Tween-80) is reported as 100 % of control, the T/C (dose: 6.25 mg/kg/injection, schedule: Q01DX009 (ip), vehicle: saline with Tween-80) is reported as 105 % of control and the T/C (dose: 6.25 mg/kg/injection, schedule: Q04DX003 (ip), vehicle: saline with Tween-80) is reported as 95 % of control. For the same compound, the T/C [3] was 120 % of control.

For `CS(=O)(=O)C(=C1C(=O)NC(=O)NC1=O)S(C)(=O)=O`, the T/C [1] was 98 % of control, the T/C [2] was 100 % of control and the T/C (dose: 50.0 mg/kg/injection, schedule: Q01DX005 (ip), vehicle: Klucel (hydroxypropylcellulose) (HPC)) was 107 % of control and 109 % of control.

In the case of `Nc1ccc(S(N)(=O)=O)cc1`, the T/C [3] is reported as 105 % of control and 112 % of control, the T/C (dose: 150.0 mg/kg/injection, schedule: Q01DX009 (ip), vehicle: saline with Tween-80) is reported as 108 % of control and 97 % of control and the T/C (dose: 200.0 mg/kg/injection, schedule: Q01DX009 (ip), vehicle: saline with Tween-80) is reported as 101 % of control and 89 % of control. The T/C (dose: 400.0 mg/kg/injection, schedule: Q01DX009 (ip), vehicle: saline with Tween-80) was 98 % of control and 100 % of control.

In the case of `N#Cc1c2c(n3c1[nH]c(=O)c1ccccc13)CCCC2`, the T/C (dose: 60.0 mg/kg/injection, schedule: Q01DX005 (ip), vehicle: saline with Tween-80) is reported as 105 % of control, the T/C (dose: 120.0 mg/kg/injection, schedule: Q01DX005 (ip), vehicle: saline with Tween-80) is reported as 100 % of control and the T/C (dose: 240.0 mg/kg/injection, schedule: Q01DX005 (ip), vehicle: saline with Tween-80) is reported as 99 % of control.

In the case of `O=C(C1CC2CCC1C2)C1CC2CCC1C2` (centres undefined), the T/C (dose: 28.2 mg/kg/injection, schedule: Q01DX009 (ip), vehicle: saline with Tween-80) is reported as 100 % of control, the T/C (dose: 56.5 mg/kg/injection, schedule: Q01DX009 (ip), vehicle: saline with Tween-80) is reported as 95 % of control and the T/C (dose: 113.0 mg/kg/injection, schedule: Q01DX009 (ip), vehicle: saline with Tween-80) is reported as 100 % of control.

`S=C([S-])N[N-]c1ccccc1.S=C([S-])N[N-]c1ccccc1.[Ni]` was tested, and the T/C (dose: 100.0 mg/kg/injection, schedule: Q04DX003 (ip), vehicle: saline with Tween-80) was 97 % of control, the T/C (dose: 200.0 mg/kg/injection, schedule: Q04DX003 (ip), vehicle: saline with Tween-80) was 100 % of control and the T/C (dose: 400.0 mg/kg/injection, schedule: Q04DX003 (ip), vehicle: saline with Tween-80) was 100 % of control.

In the case of `O.O.[Cl][Pt+2][Cl].[NH-]C1CC2CCC1C2.[NH-]C1CC2CCC1C2` (centres undefined), the T/C (dose: 33.0 mg/kg/injection, schedule: Q04DX003 (ip), vehicle: saline with Tween-80) is reported as 154 % of control and the T/C (dose: 50.0 mg/kg/injection, schedule: Q04DX003 (ip), vehicle: saline with Tween-80) is reported as 150 % of control.
